Laboratory results published in US9260408B2, “Dihydroquinoline-2-one derivatives” (Hoffmann-La Roche Inc., priority 2011, dated 2016).
Structures can show the parent of a compound that is named as a salt.

Legend:
human CYP11B2 = molecular target: T1, human CYP11B2 (Homo sapiens, UniProt P19099); test: G-402 cellular enzyme assay, human CYP11B2 (aldosterone release, HTRF); format: cell-based; details: G-402 cells expressing human CYP11B2; 1 μM Deoxycorticosterone
T1 construct: expressed in transfected cells
T1 sequence (P19099 25-503): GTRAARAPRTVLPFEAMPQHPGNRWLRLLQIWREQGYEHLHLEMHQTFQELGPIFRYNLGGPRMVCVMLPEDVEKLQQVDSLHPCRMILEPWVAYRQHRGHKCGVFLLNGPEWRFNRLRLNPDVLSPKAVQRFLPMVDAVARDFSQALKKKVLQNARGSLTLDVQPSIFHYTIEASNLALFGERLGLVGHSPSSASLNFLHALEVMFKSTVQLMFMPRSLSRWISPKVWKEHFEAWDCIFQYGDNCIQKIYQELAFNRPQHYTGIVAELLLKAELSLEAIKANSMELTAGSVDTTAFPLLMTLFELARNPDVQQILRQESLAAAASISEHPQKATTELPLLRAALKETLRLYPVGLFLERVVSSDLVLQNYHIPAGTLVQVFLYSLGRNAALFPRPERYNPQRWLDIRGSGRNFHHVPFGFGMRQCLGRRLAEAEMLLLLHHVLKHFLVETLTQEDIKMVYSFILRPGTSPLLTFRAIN
Source text: (§1) Herein we identified the use of the G-402 cell line as a host cell to ectopically express (transiently or stably) enzymes of the CYP11 family. Specifically we developed stable G-402 cells expressing ectopically human CYP11B1, human CYP11B2, human CYP11A1, cynomolgus CYP11B1 or cynomolgus CYP11B2 enzyme activity. Importantly the identified cell line G-402 expresses co-factors (adrenodoxin and adrenodoxin reductase) important for the activity of the CYP11 family and no relevant enzyme activity of the CYP11 family (in comparison to H295R cells) was detected in these cells. Therefore the G-402 cell line is uniquely suited as a host cell for the ectopic expression of enzymes from the CYP11 family.
(§2) G-402 cells can be obtained from ATCC(CRL-1440) and were originally derived from a renal leiomyoblastoma.
(§3) The expression plasmids contains the ORF for either human/cyno CYP11B1 or CYP11B2 under the control of a suitable promoter (CMV-promoter) and a suitable resistance marker (neomycin). Using standard techniques the expression plasmid is transfected into G-402 cells and these cells are then selected for expressing the given resistance markers. Individual cell-clones are then selected and assessed for displaying the desired enzymatic activity using 11-Deoxycorticosterone (Cyp11B2) or 11-Deoxycortisol (Cyp11B1) as a substrate.
(§4) G-402 cells expressing CYP11 constructs were established as described above and maintained in McCoy's 5a Medium Modified, ATCC Catalog No. 30-2007 containing 10% FCS and 400 μg/ml G418 (Geneticin) at 37° C. under an atmosphere of 5% CO2/95% air. Cellular enzyme assays were performed in DMEM/F12 medium containing 2.5% charcoal treated FCS and appropriate concentration of substrate (0.3-10 uM 11-Deoxycorticosterone, 11-Deoxycortisol or Corticosterone). For assaying enzymatic activity, cells were plated onto 96 well plates and incubated for 16 h. An aliquot of the supernatant is then transferred and analyzed for the concentration of the expected product (Aldosterone for CYP11B2; Cortisol for CYP11B1). The concentrations of these steroids can be determined using HTRF assays from CisBio analyzing either Aldosterone or Cortisol.
(§5) Inhibition of the release of produced steroids can be used as a measure of the respective enzyme inhibition by test compounds added during the cellular enzyme assay. The dose dependent inhibition of enzymatic activity by a compound is calculated by means of plotting added inhibitor concentrations (x-axes) vs. measured steroid/product level (y-axes). The inhibition is then calculated by fitting the following 4-parameter sigmoidal function (Morgan-Mercer-Flodin (MMF) model) to the raw data points using the least squares method:
(§6) [formula] wherein, A is the maximum y value, B is the EC50 factor determined using XLFit, C is the minimum y value and D is the slope value.
(§7) EC50 values for compounds claimed herein were tested with the G402-based assay system described. Cyp11B2 enzyme activity was tested in presence of 1 μM Deoxycorticosterone and variable amounts of inhibitors; Cyp11B1 enzyme activity was tested in presence of 1 μM Deoxycortisol and variable amounts of inhibitors.

human CYP11B1 = molecular target: T2, human CYP11B1 (Homo sapiens, UniProt P15538); test: G-402 cellular enzyme assay, human CYP11B1 (cortisol release, HTRF); format: cell-based; details: G-402 cells expressing human CYP11B1; 1 μM Deoxycortisol
T2 construct: expressed in transfected cells
T2 sequence (P15538 25-503): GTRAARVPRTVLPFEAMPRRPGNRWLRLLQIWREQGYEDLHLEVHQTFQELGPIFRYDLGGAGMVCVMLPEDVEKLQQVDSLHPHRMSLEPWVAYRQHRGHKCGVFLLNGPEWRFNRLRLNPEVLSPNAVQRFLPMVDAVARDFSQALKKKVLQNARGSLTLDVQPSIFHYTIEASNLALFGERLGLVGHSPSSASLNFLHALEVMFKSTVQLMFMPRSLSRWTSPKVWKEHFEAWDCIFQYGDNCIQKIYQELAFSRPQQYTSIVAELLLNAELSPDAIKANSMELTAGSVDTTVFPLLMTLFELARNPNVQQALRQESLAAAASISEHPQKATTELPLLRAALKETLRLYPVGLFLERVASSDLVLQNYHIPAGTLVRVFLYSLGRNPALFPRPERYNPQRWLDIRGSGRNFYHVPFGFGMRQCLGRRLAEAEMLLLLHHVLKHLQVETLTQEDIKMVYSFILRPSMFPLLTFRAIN
Source text: as §1, §2, §3, §4, §5, §6, §7

Structure (SMILES) | EC50 (human CYP11B2) [nM] | EC50 (human CYP11B1) [nM]
CCS(=O)(=O)NC(c1cncc(-c2ccc3c(c2)CCC(=O)N3C)c1)C(C)C (racemic) [Example 176, (rac)-Ethanesulfonic acid {2-methyl-1-[5-(1-methyl-2-oxo-1,2,3,4-tetrahydro-quinolin-6-yl)-pyridin-3-yl]-propyl}-amide] | 128 | 
CCS(=O)(=O)NC(c1cncc(-c2ccc3c(c2)CCC(=O)N3C)c1)C1CC1 (racemic) [Example 177, (rac)-Ethanesulfonic acid {cyclopropyl-[5-(1-methyl-2-oxo-1,2,3,4-tetrahydro-quinolin-6-yl)-pyridin-3-yl]-methyl}-amide] | 117 | 8460
CCC(NS(=O)(=O)CC)c1cncc(-c2ccc3c(c2)CCC(=O)N3C)c1 (racemic) [Example 180, (rac)-Ethanesulfonic acid {1-[5-(1-methyl-2-oxo-1,2,3,4-tetrahydro-quinolin-6-yl)-pyridin-3-yl]-propyl}-amide] | 33 | 1890
CCC(=O)NC(C)c1cncc(-c2cc3c(cc2F)N(C)C(=O)CC3)c1 (racemic) [Example 213, (rac)-N-{1-[5-(7-Fluoro-1-methyl-2-oxo-1,2,3,4-tetrahydro-quinolin-6-yl)-pyridin-3-yl]-ethyl}-propionamide] | 41 | 834
CC(N[S@+]([O-])C(C)(C)C)c1cncc(-c2ccc3c(c2)CCC(=O)N3C)c1 (single isomer, unassigned) [Example 56, (R)-2-Methyl-propane-2-sulfinic acid {(S or R)-1-[5-(1-methyl-2-oxo-1,2,3,4-tetrahydro-quinolin-6-yl)-pyridin-3-yl]-ethyl}-amide] | 40 | 587
CC(N)c1cncc(-c2ccc3c(c2)CCC(=O)N3C)c1 (single isomer, unassigned) [Example 64, 6-[5-((S or R)-1-Amino-ethyl)-pyridin-3-yl]-1-methyl-3,4-dihydro-1H-quinolin-2-one hydrochloride] | 423 | 12300
CC(N)c1cncc(-c2ccc3c(c2)CCC(=O)N3C)c1 (single isomer, unassigned) [Example 65, 6-[5-((R or S)-1-amino-ethyl)-pyridin-3-yl]-1-methyl-3,4-dihydro-1H-quinolin-2-one hydrochloride] | 315 | 13100
CN1C(=O)CCc2cc(-c3cncc(C4(N[S@+]([O-])C(C)(C)C)COC4)c3)ccc21 [Example 54, (R)-2-Methyl-propane-2-sulfinic acid {3-[5-(1-methyl-2-oxo-1,2,3,4-tetrahydro-quinolin-6-yl)-pyridin-3-yl]-oxetan-3-yl}-amide] |  | 3850
CN1C(=O)CCc2cc(-c3cncc(O[C@H]4CCNC4)c3)ccc21 [Example 60, 1-methyl-6-[5-((S)-pyrrolidin-3-yloxy)-pyridin-3-yl]-3,4-dihydro-1H-quinolin-2-one hydrochloride] | 685 | 
CN1C(=O)CCc2cc(-c3cncc(OC[C@@H]4CCCN4)c3)ccc21 [Example 66, 1-Methyl-6-[5-((S)-1-pyrrolidin-2-ylmethoxy)-pyridin-3-yl]-3,4-dihydro-1H-quinolin-2-one hydrochloride] | 710 | 
COc1cc(C(=O)N2CC3(C2)CN(c2cncc(-c4ccc5c(c4)CCC(=O)N5C)n2)C3)on1 [Example 74, 6-{6-[6-(3-Methoxy-isoxazole-5-carbonyl)-2,6-diaza-spiro[3.3]hept-2-yl]-pyrazin-2-yl}-1-methyl-3,4-dihydro-1H-quinolin-2-one] | 286 | 
Cc1cc(Cl)cnc1C(=O)NCc1cncc(-c2ccc3c(c2)CCC(=O)N3C)c1 [Example 120] |  | 8
CCS(=O)(=O)N(C)CCOc1cncc(-c2cc3c(cc2F)N(C)C(=O)CC3)c1 [Example 248, Ethanesulfonic acid {2-[5-(7-fluoro-1-methyl-2-oxo-1,2,3,4-tetrahydro-quinolin-6-yl)-pyridin-3-yloxy]-ethyl}-methyl-amide] |  | 7
CN1C(=O)CCc2cc(-c3cncc(C4CCN(C(=O)OC(C)(C)C)CC4)c3)ccc21 [Example 260, 5-(1-Methyl-2-oxo-1,2,3,4-tetrahydro-quinolin-6-yl)-3′,4′,5′,6′-tetrahydro-2′H-[3,4′]bipyridinyl-1′-carboxylic acid tert-butyl ester] |  | 1
CCS(=O)(=O)NCc1cncc(-c2cc(F)c3c(ccc(=O)n3C)c2)c1 [Example 263, Ethanesulfonic acid [5-(8-fluoro-1-methyl-2-oxo-1,2-dihydro-quinolin-6-yl)-pyridin-3-ylmethyl]-amide] | 3100 | 

Further lines, results first:

EC50 (human CYP11B2) [nM] | EC50 (human CYP11B1) [nM] | Structure (SMILES)
10 | 535 | CCS(=O)(=O)NC(C)c1cncc(-c2cc3c(cc2F)N(C)C(=O)CC3)c1 (racemic) [Example 178, (rac)-Ethanesulfonic acid {1-[5-(7-fluoro-1-methyl-2-oxo-1,2,3,4-tetrahydro-quinolin-6-yl)-pyridin-3-yl]-ethyl}-amide]
11 | 199 | CCS(=O)(=O)N(C)C(C)c1cncc(-c2ccc3c(c2)CCC(=O)N3C)c1 (racemic) [Example 186, (rac)-Ethanesulfonic acid methyl-{1-[5-(1-methyl-2-oxo-1,2,3,4-tetrahydro-quinolin-6-yl)-pyridin-3-yl]-ethyl}-amide]
27 | 705 | CCN(C(C)c1cncc(-c2ccc3c(c2)CCC(=O)N3C)c1)S(=O)(=O)CC (racemic) [Example 187, (rac)-Ethanesulfonic acid ethyl-{1-[5-(1-methyl-2-oxo-1,2,3,4-tetrahydro-quinolin-6-yl)-pyridin-3-yl]-ethyl}-amide]
26 | 393 | CC(N[S@+]([O-])C(C)(C)C)c1cncc(-c2ccc3c(c2)CCC(=O)N3C)c1 (single isomer, unassigned) [Example 57, (R)-2-Methyl-propane-2-sulfinic acid {(R or S)-1-[5-(1-methyl-2-oxo-1,2,3,4-tetrahydro-quinolin-6-yl)-pyridin-3-yl]-ethyl}-amide]
6 | 163 | Cc1noc(C)c1C(=O)NC(C)c1cncc(-c2ccc3c(c2)CCC(=O)N3C)c1 (single isomer, unassigned) [Example 135]
31 | 800 | CCS(=O)(=O)NC(C)c1cncc(-c2ccc3c(c2)CCC(=O)N3C)c1 (single isomer, unassigned) [Example 173, Ethanesulfonic acid {(R or S)-1-[5-(1-methyl-2-oxo-1,2,3,4-tetrahydro-quinolin-6-yl)-pyridin-3-yl]-ethyl}-amide]
